Measurements as given in article PMC4363128 (Neuroscience, 2013).

Experiments:
[1] = system: Y1 receptors; NK1R internalization in lamina I neurons; test: NK1R internalization evoked by dorsal root stimulation in spinal cord slices; format: cell-based, rat; settings: BIBO3304 100 nM with 100 nM [Leu^31,Pro^34]NPY
Y1 receptor = biological target: T1, Y1 receptor (Mus musculus, UniProt Q04573); format: biochemical
T1 sequence (Q04573 1-382): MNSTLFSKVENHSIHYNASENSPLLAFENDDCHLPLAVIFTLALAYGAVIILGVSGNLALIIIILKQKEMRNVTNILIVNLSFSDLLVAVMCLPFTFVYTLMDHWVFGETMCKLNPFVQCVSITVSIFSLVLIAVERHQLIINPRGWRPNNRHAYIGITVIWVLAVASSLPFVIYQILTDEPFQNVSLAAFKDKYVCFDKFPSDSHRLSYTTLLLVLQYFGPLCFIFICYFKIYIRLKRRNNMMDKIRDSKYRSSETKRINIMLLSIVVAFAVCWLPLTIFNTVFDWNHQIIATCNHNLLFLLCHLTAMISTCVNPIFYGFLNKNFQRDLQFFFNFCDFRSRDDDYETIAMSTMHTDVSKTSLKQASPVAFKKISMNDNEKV

[2] = system: NK1R internalization in dorsal horn lamina I neurons; format: in vivo, rat; settings: intrathecal NPY one hour before hind paw clamp
[3] = system: NK1R internalization in dorsal horn lamina I neurons; test: NK1R internalization evoked by non-noxious stimulus; format: in vivo, rat; settings: intrathecal NPY, carrageenan-inflamed paw; printed 'by nearly 50%'

Compound | effect on inhibition of NK1R internalization produced by Y1 agonist [1] | IC50 (Y1 receptor) | inhibition of evoked NK1R internalization [2] | inhibition of brush-evoked NK1R internalization [3]
NC(=O)NCc1ccc(CNC(=O)[C@@H](CCCN=C(N)N)NC(=O)C(c2ccccc2)c2ccccc2)cc1 [BIBO3304] | completely reversed | 7.85 nM |  | 
Neuropeptide Y [NPY] |  |  | 50% | ~50%
